Results taken from patent publication US20060281806A1, “Treatment and inhibition of disease conditions using flexible heteroarotinoids” (priority 2005, published 2006).
Entries after “also recorded” stand apart in the source; their conditions may differ.

What was measured:
[1] = test system: SiHa human cervical cell line; test: In vitro cytotoxicity (SRB growth inhibition) assay, SiHa; assay type: cell-based; set-up: dose or concentration left out as unconfirmed; conditions: 72 h
Description: (§1) The SHetA2, SHetA3, SHetA4, SHet50 and 9-cis-RA compounds were evaluated in 4 cervical carcinoma cell lines. The SiHa, CC-1 and C33a human cervical cell lines were maintained in Minimal Essential Media (MEM) containing Earle's salts and L-glutamine supplemented with nonessential amino acids, 1% sodium pyruvate, 10% fetal bovine serum (FBS) and antibiotic/antimycotic. The HT-3 cervical carcinoma cell line was cultured in McCoy's 5a medium supplemented with 10% FBS and antibiotic/antimycotic. Cells were inoculated into 96 well microtiter plates at densities of 1000 cells/well and incubated for 24 h prior to addition of drugs. Drugs were dissolved in dimethyl sulfoxide (DMSO) and diluted in complete medium, prior to addition to triplicate culture wells to achieve final concentrations of […]. Following drug addition, the plates were incubated for 72 h. The assay was terminated by the addition of cold TCA and the cells were stained with 0.4% sulforhodamine B (SRB) in 1% acetic acid. Bound stain was subsequently solubilized with 10 mM trizma base, and the absorbance was read on an automated plate reader at a wavelength of 560 nm. Growth inhibition was determined by dividing the average Optical Density (OD) of the triplicated treated cultures by the average OD of the triplicate control cultures treated with DMSO solvent only. This ratio was converted into a percentage by multiplying by 100. The potency (concentration required to induce half of the maximal activity—GI50) were derived from dose-response graphs generated with results from 3 to 5 individual experiments using GraphPad Software.

[2] = test system: CC-1 human cervical cell line; test: In vitro cytotoxicity (SRB growth inhibition) assay, CC-1; assay type: cell-based; set-up: dose or concentration left out as unconfirmed; conditions: 72 h
Description: as §1

[3] = test system: C33a human cervical cell line; test: In vitro cytotoxicity (SRB growth inhibition) assay, C33a; assay type: cell-based; set-up: dose or concentration left out as unconfirmed; conditions: 72 h
Description: as §1

[4] = test system: Raldh2 −/− embryos; test: Rescue of Raldh2 −/− embryos and teratogenesis; assay type: in vivo, mouse; conditions: for No. of −/− unrescued / Teratogenesis (no. of embryos) / No. of −/− rescued: E10.25 embryos
Description: Dosages varied from 0.025 to 25 mg/kg.

[5] = test system: HT-3 cervical carcinoma cell line; test: In vitro cytotoxicity (SRB growth inhibition) assay, HT-3; assay type: cell-based, human; set-up: dose or concentration left out as unconfirmed; conditions: 72 h
Description: as §1

[6] = test system: ovarian carcinoma organotypic cultures; test: Organotypic culture model of ovarian tumors; assay type: cell-based, human; conditions: 1 μM retinoid in media; 3, 7 or 14 days
Description: FIG. 17. Retinoid effects on ovarian carcinoma organotypic cultures. Organotypic cultures of OVCAR-3 (A, B, E, F, I and J), Caov-3 (C and G), SK-OV-3 (D and H), and O2 (K and L) were grown in the absence (−, top row and K) or presence (+, middle row and I, J and L) of retinoid HetA4 at a concentration of 1 μM in the media. All sections were stained with H&E except for I, which was stained with PAS to detect glycoproteins and glandular differentiantion, and J, which was stained with the TUNEL assay to detect apoptosis. All magnifications are 40×.
To test our hypotheses, we evaluated the effects of clinically achievable concentrations of 4-HPR and Flex-Hets on growth, differentiation and apoptosis in ovarian tissue. A series of compounds with a variety of receptor activation profiles were evaluated. In order to evaluate therapeutic effects, we developed an organotypic culture model of ovarian tumors by growing established cell lines and primary cultures inside collagen gels. Monolayer cultures of cells are not accurate representations of in vivo tissue because they lack the types of interactions that cells have with other cells and with the extracellular matrix in vivo. These interactions are known to influence gene expression and thus the constitution and behavior of cells. In our organotypic model, the growth of tumor cells inside the collagen allows a representation of tumors that have invaded stromal tissue. In the presence of fibroblasts, established cell lines and primary cultures of ovarian cancer formed colonies inside the collagen, while normal or benign ovarian epithelial cells remained as single cells inside the collagen. Human ovarian cancer cell lines (OVCAR-3, Caov-3, SK-OV-3, A2780, UCI 101) and primary human cultures (borderline ovarian tumor (O1), serous papillary tumor (O2), benign ovarian cyst (O3)) were cultured inside and on top of a collagen gel seeded with 3T3 fibroblasts for one week. After further incubation in the presence or absence of 1 μM retinoid (media concentration) for 3, 7 or 14 days, cultures were fixed and sectioned for immunohistochemical analysis.

[7] = test system: dorsal skin of female Skh hairless mice; test: Topical irritancy; assay type: in vivo; conditions: topical on dorsal skin for 4 days; 2-log concentration dose range
Description: Female Skh hairless mice, 6-8 weeks old, were treated topically on the dorsal skin for 4 days over a 2-log concentration dose range with various compounds. Retinoic acid receptor-Hets were evaluated in A, while retinoic acid receptor-independent Flex-Hets were evaluated in B. Daily flaking and abrasion scores were combined to calculate a single cutaneous toxicity score for each mouse. Each treatment group consisted of 4 mice, and group averages were used to plot cutaneous toxicity against doses of the compounds.
Topical irritancy was evaluated according to published procedures (29). Briefly, female Skh hairless mice, 6-8 weeks old, were treated topically on the dorsal skin for 4 days over a 2-log concentration dose range with various compounds. Daily flaking and abrasion scores were combined to calculate a single cutaneous toxicity score for each mouse. Each treatment group consists of 4 mice, and group averages are used to plot cutaneous toxicity against dose of the retinoid compound.

[8] = Alanine aminotransferase (ALT) activity in plasma of mice; assay type: in vivo, mouse; conditions: end of treatment, 10 mg/kg/day by gavage
Description: At the end of the treatment period, blood was drawn from each animal. Plasma was separated by centrifugation and stored at −70° C. The activity of ALT was determined in aliquots of plasma by standard spectrophotometric enzymatic techniques which are based on the reduction of pyruvate by lactate dehydrogenase (28). The method measures NADH disappearance with time of incubation at 37° C. The activities are expressed as mm/L/min. Two different amounts of plasma were used in each assay to assure measurement of the maximum rate.

[9] = test system: OVCAR-3 xenograft tumors; test: OVCAR-3 xenograft tumor animal model, tumor growth; assay type: in vivo, mouse; conditions: 10 mg/kg/day by gavage, 5 days/week, 4 weeks; t-test on day 29
Description: Groups of 5 mice bearing OVCAR-3 xenografted tumors were gavaged daily with the indicated drugs in sesame oil (▪ closed square) or with sesame oil alone (∘ open circle). Tumor volumes were measured in 3 dimensions with calipers weekly. Each data point represents the average and standard error of the tumor volumes on the indicated treatment day relative to the tumor volume on day zero. Nu/nu mice were injected subcutaneously with one million OVCAR-3 cells and arbitrarily divided into five groups of six mice each. After three weeks of tumor growth, the animals were gavaged with sesame oil, 10 mg/kg/day 4-HPR, or the indicated Het five times per week for four weeks and the tumors were measured once per week. The tumor sizes were averaged and divided by the average size for each group on the day that treatment was initiated (day 0).
The OVCAR-3 cultures were maintained in RPMI media supplemented with 10% fetal bovine serum. All animal experimentation described in this manuscript was conducted in accord with accepted standards of humane animal care. Twenty-five female NU/NU CD-1 female mice (Charles Rivers Laboratories) were housed in a laminar flow room under sterile conditions at 83-85° F. The mice were quarantined for one week prior to the beginning of the study and were allowed access to autoclaved food (Purina 5001 mouse/rat sterilizable diet, St. Louis, Mo.) and water ad libitum. OVCAR-3 cells in log phase growth were harvested by trypsinization, resuspended in RPMI culture medium, and centrifuged at 3,000 rpm for 10 min. The pellets were resuspended in RPMI culture medium at a concentration of 7×10^6 cells/ml before implantation into mice. Animals were injected with 3.5×10^6 cells into the right scapular region with a 24-gauge needle/1 cc tuberculin syringe. Twenty-four hours after tumor implantation, animals were randomized into 5 groups of 5 animals each.
The Hets SHet50, SHetA2 and SHetA4 were synthesized and their receptor specificity determined as previously described (17,19). The 4-HPR compound was a gift from R.W. Johnson Pharmaceutical Research Institute, Raritan, N.J. All retinoids were dissolved in super refined sesame oil (Croda, Inc., Parsippany, N.J.) and stored at −80° C. Since the retinoids are light sensitive, all manipulations involving retinoids were performed under subdued lighting. […] Tumors were measured with calipers weekly, and tumor volumes were calculated using the formula: volume=length×width×height. Tumor growth was determined by the dividing the volume of the tumor at each weekly measurement by the volume on the first day of treatment. Animal weights and clinical signs of overall health status and cutaneous toxicities were recorded weekly.

[10] = dose 2.5 mg/kg oral to pregnant mice
[11] = dose 10 mg/kg oral to pregnant mice
[12] = dose 1.0 mg/kg oral to pregnant mice
[13] = dose 25 mg/kg oral to pregnant mice
[14] = dose 0.025 mg/kg oral to pregnant mice
[15] = dose 0.25 mg/kg oral to pregnant mice
[16] = dose 0.5 mg/kg oral to pregnant mice

CC1=C(/C=C/C(C)=C\C=C\C(C)=C\C(=O)O)C(C)(C)CCC1 [9-cis-RA, 9-cis-retinoic acid]
Efficacy: percent growth inhibition relative to the untreated control [1]: 24%
Efficacy: percent growth inhibition relative to the untreated control [2]: 28%
Efficacy: percent growth inhibition relative to the untreated control [3]: 45%
rescue of Raldh2 −/− embryos (phenotype) ([4]; 2.5 mg/kg to pregnant mothers): partial rescue
No. of −/− unrescued [4, 10]: 8
Teratogenesis (no. of embryos) [4, 10]: 0
No. of −/− rescued [4, 11]: 6
No. of −/− unrescued [4, 11]: 1
Teratogenesis (no. of embryos) [4, 11]: 0
Efficacy: percent growth inhibition relative to the untreated control [5]: 47%
induction of apoptosis (TUNEL) in organotypic cultures [6]: Apoptosis was induced

CC1=C(/C=C/C(C)=C/C=C/C(C)=C/C(=O)O)C(C)(C)CCC1 [All-trans-RA]
No. of −/− rescued [4, 12]: 0
No. of −/− unrescued [4, 12]: 7
Teratogenesis (no. of embryos) [4, 12]: 0
No. of −/− rescued [4, 10]: 13
No. of −/− unrescued [4, 10]: 1
Teratogenesis (no. of embryos) [4, 10]: 0

CCOC(=O)c1ccc(OC(=O)c2ccc3c(c2)C(C)(C)CCN3C(C)C)cc1 [NHet17]
topical irritancy (cutaneous toxicity score) [7]: induced topical irritancy scores in a dose-responsive manner

CC1(C)CCOc2ccc(C(=O)Oc3ccc(C=NNC(N)=S)cc3)cc21 [OHet72]
topical irritancy (cutaneous toxicity score) [7]: did not induce topical irritancy
rescue of Raldh2 −/− embryos (phenotype) ([4]; 2.5 mg/kg to pregnant mothers): no rescue
rescue of Raldh2 −/− embryos (phenotype) ([4]; 10 or 25 mg/kg to pregnant mothers): no rescue
teratogenesis in litters ([4]; any dosage (2.5, 10, 25 mg/kg)): no teratogenesis was observed
No. of −/− rescued [4, 10]: 0
No. of −/− unrescued [4, 10]: 4
Teratogenesis (no. of embryos) [4, 10]: 0
No. of −/− rescued [4, 11]: 0
No. of −/− unrescued [4, 11]: 3
Teratogenesis (no. of embryos) [4, 11]: 0
No. of −/− rescued [4, 13]: 0
No. of −/− unrescued [4, 13]: 5
Teratogenesis (no. of embryos) [4, 13]: 0

COC(=O)c1ccc(C(=O)Nc2ccc3c(c2)C(C)(C)CC(C)(C)S3)cc1 [SHet50, reference compound]
Efficacy: percent growth inhibition relative to the untreated control [1]: 35%
ALT Activity [8]: 65.5 ± 46.3 mm/liter/min
Efficacy: percent growth inhibition relative to the untreated control [2]: 15%
Efficacy: percent growth inhibition relative to the untreated control [3]: 67%
Efficacy: percent growth inhibition relative to the untreated control [5]: 47%
induction of apoptosis (TUNEL) in organotypic cultures [6]: Apoptosis was induced
growth of xenograft tumors versus sesame oil control [9]: significantly inhibited the growth; also recorded: significantly less

CC(C=CC=C(C)c1ccc2c(c1)C(C)(C)CS2)=CC(=O)O [SHet65]
topical irritancy (cutaneous toxicity score) [7]: induced topical irritancy scores in a dose-responsive manner

CC(Cc1ccc(C(=O)O)cc1)c1ccc2c(c1)C(C)(C)CS2 (stereo not drawn) [SHet100]
rescue of Raldh2 −/− embryos (phenotype) ([4]; 0.25 mg/kg to pregnant mothers): partial rescue
rescue of Raldh2 −/− embryos (phenotype) ([4]; 0.5 mg/kg to pregnant mothers): typical rescue phenotype
teratogenesis in litter ([4]; 2.5 mg/kg to pregnant mothers): teratogenic for all embryos in a litter
No. of −/− rescued [4, 14]: 0
No. of −/− unrescued [4, 14]: 2
Teratogenesis (no. of embryos) [4, 14]: 0
No. of −/− unrescued [4, 15]: 0
Teratogenesis (no. of embryos) [4, 15]: 0
No. of −/− rescued [4, 16]: 6
No. of −/− unrescued [4, 16]: 1
Teratogenesis (no. of embryos) [4, 16]: 0
Teratogenesis (no. of embryos) [4, 10]: 11
